We go through six molecules from ChEMBL document CHEMBL1201862, “PubChem BioAssay data set” (2004).

Activity calls are given as the source filed them.

Broadly, the AC50 is the concentration at which the activity in the assay is half-maximal. In general, EC50 refers to the concentration at which the effect is half-maximal. What is called CC50 is the concentration that lowers cell viability or growth by half.

Test [1] deals with T1, High affinity choline transporter 1 (Homo sapiens, UniProt Q9GZV3).
T1 sequence (Q9GZV3 whole entry): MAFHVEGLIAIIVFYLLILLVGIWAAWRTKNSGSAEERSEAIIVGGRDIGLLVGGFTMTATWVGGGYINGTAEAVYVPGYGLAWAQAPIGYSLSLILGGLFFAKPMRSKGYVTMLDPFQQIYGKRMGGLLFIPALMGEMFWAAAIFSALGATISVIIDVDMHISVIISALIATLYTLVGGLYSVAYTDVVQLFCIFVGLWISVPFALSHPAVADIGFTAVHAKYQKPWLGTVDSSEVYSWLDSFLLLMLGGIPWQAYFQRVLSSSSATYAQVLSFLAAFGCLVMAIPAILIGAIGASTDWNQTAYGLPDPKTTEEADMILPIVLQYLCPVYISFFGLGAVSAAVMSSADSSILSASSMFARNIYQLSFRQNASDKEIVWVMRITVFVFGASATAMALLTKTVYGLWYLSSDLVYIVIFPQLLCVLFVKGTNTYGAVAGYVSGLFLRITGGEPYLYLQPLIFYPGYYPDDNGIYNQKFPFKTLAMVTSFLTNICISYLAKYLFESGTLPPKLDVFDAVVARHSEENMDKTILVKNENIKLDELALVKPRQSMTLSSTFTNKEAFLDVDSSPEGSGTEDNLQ
Description: CHT inhibitors, dose response, cell-based, 5-point CRC, membrane potential dye (AID 504840). The class given is functional.

Test [2] deals with Heat shock protein HSP 90-alpha (Homo sapiens, UniProt P07900). The class given is functional, organism-based.
The nature of test [3]: inhibitors of intracellular T. cruzi replication, confirmation, NIH3T3 host cells, beta-gal luminescence (AID 2044).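 Note: intracellular parasites grown in NIH/3T3 mouse fibroblasts as host cells; luminescent beta-galactosidase reporter signal from transgenic T. cruzi replicating inside host cells; inhibitors lower the luminescence signal.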 Format: functional, cell-based.
Test [4] addresses T2, Heat shock factor protein 1 (Mus musculus, UniProt P38532).
T2 sequence (P38532 whole entry): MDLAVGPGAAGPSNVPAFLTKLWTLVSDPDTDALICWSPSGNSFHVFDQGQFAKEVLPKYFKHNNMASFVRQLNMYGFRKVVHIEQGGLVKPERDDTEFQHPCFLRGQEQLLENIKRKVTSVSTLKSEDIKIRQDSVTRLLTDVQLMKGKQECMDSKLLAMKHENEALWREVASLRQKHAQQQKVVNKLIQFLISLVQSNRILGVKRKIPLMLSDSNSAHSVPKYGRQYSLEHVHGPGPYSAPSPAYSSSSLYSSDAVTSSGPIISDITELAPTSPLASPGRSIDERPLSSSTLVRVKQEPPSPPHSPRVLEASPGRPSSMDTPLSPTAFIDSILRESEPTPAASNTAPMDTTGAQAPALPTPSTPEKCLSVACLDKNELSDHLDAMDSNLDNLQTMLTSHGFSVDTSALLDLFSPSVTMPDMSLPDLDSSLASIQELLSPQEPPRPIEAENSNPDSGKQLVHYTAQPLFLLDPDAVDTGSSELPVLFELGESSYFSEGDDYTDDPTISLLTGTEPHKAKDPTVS
Briefly: HSF1 potentiators in luciferase reporter cells, confirmation, cell-based, NIH3T3, luminescence, dose retest (AID 435004).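 Note: stress induced by proteasome inhibitor MG132 added 30 min after compound; luciferase reporter driven by HSF1 response element in NIH3T3 cells; actives raise luminescence as potentiators of the MG132 stress response.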 The class given is functional.

The test system of test [5] is Vero. Description: Vero cell cytotoxicity, cytotoxicity control for flavivirus capping enzyme inhibitors (AID 588742). The class given is functional. Conditions: Chlorocebus sabaeus.
A short description of test [6]: cytotoxicity toward NIH3T3 fibroblasts, dose response, counter-screen, cell-based, ATP luminescence, mouse fibroblasts (AID 2010).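 Note: cells exposed to compound for about 90 hours before reading.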 Format: functional.
In test [7] the target is T3, Polyadenylate-binding protein 1 (Homo sapiens, UniProt P11940). Briefly: PABP1 MLLE–PAM2 binding inhibitor potency, dose response, biochemical, fluorescence polarization, FITC-PAM2 peptide (AID 602259). Conditions: read-out: IC50_Mean. Format: functional.
Test [8] in a line: Luminescence Cell-Based Dose Retest to Confirm Inhibitors of Cancer Stem Cells. [Related pubchem assays (depositor defined):AID2717, AID2721]. The class given is functional. Conditions: Homo sapiens.
For test [9], the system named is Vero. Briefly: cells. The class given is functional. Conditions: Chlorocebus sabaeus.
For a further test, the target named is Genome polyprotein (dengue virus type 2, UniProt P29990). Briefly: Dengue-2 NS5 methyltransferase inhibitors, primary screen, biochemical, confirmation dose response (AID 588689). The class given is functional.
In test [10] the target is T3, Polyadenylate-binding protein 1. Description: PABP1 MLLE–PAM2 interaction inhibitors, dose response, miRNA deadenylation inhibitor project, biochemical, fluorescence polarization, Cy5-PAM2 peptide, secondary (AID 602260). The class given is functional. The note with it: read-out: IC50_Mean.
The target of test [11] is T4, Mannose-6-phosphate isomerase (Homo sapiens, UniProt P34949).
T4 sequence (P34949 whole entry): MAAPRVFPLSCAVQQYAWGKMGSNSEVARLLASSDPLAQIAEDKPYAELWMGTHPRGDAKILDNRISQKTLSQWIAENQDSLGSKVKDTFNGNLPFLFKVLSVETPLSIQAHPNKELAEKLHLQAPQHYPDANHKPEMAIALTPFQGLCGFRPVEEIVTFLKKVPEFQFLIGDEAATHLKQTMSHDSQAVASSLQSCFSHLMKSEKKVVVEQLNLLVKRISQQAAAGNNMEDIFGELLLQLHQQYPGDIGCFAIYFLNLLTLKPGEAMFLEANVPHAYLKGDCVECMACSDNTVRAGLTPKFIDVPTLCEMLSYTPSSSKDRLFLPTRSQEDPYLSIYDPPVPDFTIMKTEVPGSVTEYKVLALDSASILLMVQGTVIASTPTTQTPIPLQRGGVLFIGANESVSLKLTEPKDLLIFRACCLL
Briefly: PMI enzyme inhibitors, confirmation, biochemical, fluorescence intensity (AID 1535).

In the next test the target is T5, Phosphomannomutase 2 (Homo sapiens, UniProt O15305).
T5 sequence (O15305 whole entry): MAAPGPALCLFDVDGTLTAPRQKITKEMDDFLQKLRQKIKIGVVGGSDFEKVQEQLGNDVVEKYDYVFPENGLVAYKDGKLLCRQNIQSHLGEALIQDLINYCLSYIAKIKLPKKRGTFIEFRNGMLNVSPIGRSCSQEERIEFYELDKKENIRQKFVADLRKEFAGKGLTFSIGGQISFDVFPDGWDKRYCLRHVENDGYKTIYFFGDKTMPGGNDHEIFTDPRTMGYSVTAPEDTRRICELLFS
Briefly: Counter screen SAR assay for PMM2 inhibitors via a fluorescence intensity assay. [Related pubchem assays (depositor defined):AID1545, AID1574].

T3 sequence (P11940 whole entry): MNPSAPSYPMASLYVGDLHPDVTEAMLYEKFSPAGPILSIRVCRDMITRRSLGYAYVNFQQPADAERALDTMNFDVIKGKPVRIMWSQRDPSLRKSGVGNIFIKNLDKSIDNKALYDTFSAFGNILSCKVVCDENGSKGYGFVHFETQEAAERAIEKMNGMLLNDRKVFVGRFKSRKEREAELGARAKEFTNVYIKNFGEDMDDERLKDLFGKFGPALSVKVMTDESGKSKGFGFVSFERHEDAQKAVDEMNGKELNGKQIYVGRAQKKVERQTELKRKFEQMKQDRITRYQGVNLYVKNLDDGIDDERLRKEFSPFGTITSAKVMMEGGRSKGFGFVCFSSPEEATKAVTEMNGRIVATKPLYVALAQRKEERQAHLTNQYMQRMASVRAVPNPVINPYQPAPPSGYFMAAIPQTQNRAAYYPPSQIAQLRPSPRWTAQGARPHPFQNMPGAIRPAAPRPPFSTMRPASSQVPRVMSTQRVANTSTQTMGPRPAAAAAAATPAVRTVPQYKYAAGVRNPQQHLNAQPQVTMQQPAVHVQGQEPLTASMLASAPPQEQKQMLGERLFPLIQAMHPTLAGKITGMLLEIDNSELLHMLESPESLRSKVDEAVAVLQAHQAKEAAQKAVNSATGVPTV
Chain of Genome polyprotein (P29990 2492-3391 limits assumed): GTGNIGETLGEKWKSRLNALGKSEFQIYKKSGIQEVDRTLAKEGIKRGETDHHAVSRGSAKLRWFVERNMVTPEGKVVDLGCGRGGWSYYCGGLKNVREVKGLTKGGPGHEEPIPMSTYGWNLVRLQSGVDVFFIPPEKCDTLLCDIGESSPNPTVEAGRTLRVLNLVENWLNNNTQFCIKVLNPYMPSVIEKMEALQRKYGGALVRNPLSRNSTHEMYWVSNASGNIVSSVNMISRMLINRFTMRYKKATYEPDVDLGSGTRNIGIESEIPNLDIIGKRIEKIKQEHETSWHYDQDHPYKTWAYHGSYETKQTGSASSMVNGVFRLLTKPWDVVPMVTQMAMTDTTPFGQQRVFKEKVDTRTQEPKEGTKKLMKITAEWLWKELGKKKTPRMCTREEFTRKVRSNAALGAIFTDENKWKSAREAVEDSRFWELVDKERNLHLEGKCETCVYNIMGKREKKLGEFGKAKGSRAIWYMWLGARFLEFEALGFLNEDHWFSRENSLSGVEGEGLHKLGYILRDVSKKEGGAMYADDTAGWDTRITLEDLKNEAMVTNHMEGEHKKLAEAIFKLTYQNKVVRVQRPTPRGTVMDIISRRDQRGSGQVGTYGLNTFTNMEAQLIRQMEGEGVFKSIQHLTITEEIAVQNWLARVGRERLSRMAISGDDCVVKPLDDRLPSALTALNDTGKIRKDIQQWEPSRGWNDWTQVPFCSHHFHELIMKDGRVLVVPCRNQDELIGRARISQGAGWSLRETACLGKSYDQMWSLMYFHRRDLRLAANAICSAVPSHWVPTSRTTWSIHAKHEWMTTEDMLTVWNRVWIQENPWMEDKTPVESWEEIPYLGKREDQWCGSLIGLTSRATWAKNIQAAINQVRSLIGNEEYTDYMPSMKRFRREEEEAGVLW

Consider `CCN(Cc1ccccc1)S(=O)(=O)c1cc(C(=O)NC2CCCCCC2)ccc1OC`, for which the IC50 in test [1] was 0.575 µM (active).
As for `Cc1c(C(=O)NCCSCc2cccc(C(F)(F)F)c2)cnn1-c1ccc(Cl)cc1`, in test [2], the AC50 is 7.25 µM (active).
With `CC(C)(C)c1ccc(C(=O)CC(Sc2ccc(Cl)cc2)C(=O)O)cc1` (stereo not drawn), the values for the EC50 in test [3], in test [4] and in [6] were 2.02 µM (active), 137 µM (active) and > 60 µM (not active), respectively. Besides, the AC50 in test [2] is 4.71 µM (active); in test [8] it was 4.12 µM (active). The CC50 was 35.9 µM (active) in the test with Vero [5] and 23.2 µM (active) in the test with Vero [9]. The IC50 in test [1] was 12.6 µM (active); in test [7], > 66 µM (inactive); on Genome polyprotein it was 38.1 µM (active); in test [10], > 66 µM (inactive).
Take `Cc1cc2n(n1)SC(Nc1ccc(F)cc1)N2` (stereo not drawn): the IC50 is > 50 µM (inactive) in test [11] and > 100 µM (inactive) at Phosphomannomutase 2.
Consider `CCCCN(CCCC)CCNC(=O)c1cn(CC)c2ccc(S(=O)(=O)N(C)C3CCCCC3)cc2c1=O`, for which the IC50 in [1] was 15.8 µM (active).
Take `CS(=O)(=O)c1ccc2nc(-n3sc4ccccc4c3=O)sc2c1`: the IC50 was > 50 µM (inactive) in test [11] and > 100 µM (inactive) on Phosphomannomutase 2.
